Assay results reported in patent publication US20140271606A1, “METHODS OF USING ADENOSINE RECEPTOR ANTAGONISTS FOR TREATING BLEEDING DISORDERS” (Bayer HealthCare LLC, priority 2013, published 2014).

How the values were obtained:
Hemophilia B mice = test: Tail cut blood loss in Hemophilia B mice; type: in vivo; settings: 100 mg/kg intravenous in PEG400/water 60/40, 5 min prior to tail cut, 30 min bleeding, vs excipient (FIG. 4)
Description: In this Example, the effect of administering an adenosine receptor antagonist on reduction in blood loss in mice with Hemophilia A and Hemophilia B mice was analyzed. Male Hemophilia A or Hemophilia B mice, approximately eight to nine weeks of age and weighing, on average, approximately 25 grams, were used in this Example. The mice were anesthetized with isoflurane and the tails were placed in approximately 37-38° C. warmed 15-ml plastic tubes including 0.9% (by weight) saline for 10 minutes. The tails were then cut at 4 mm from the tip by scalpel and immediately placed back into separate pre-warmed (37-38° C.) 15-ml plastic tubes containing 10 ml of 0.9% (by weight) saline. Each mouse was allowed to bleed freely for 30 minutes. Nineteen mice having Hemophilia B were injected with the third sample of adenosine receptor antagonist solution by intravenous injection in the amount of 100 mg/kg ZM241385 five minutes prior to the tail cut. Nineteen control mice were treated with 100 μl of PEG400/water (60/40 v/v) without any adenosine receptor antagonist prior to the tail cut to serve as an untreated control. Blood loss was quantified gravimetrically by weighing the tubes before and after blood was collected.

Hemophilia A mice = test: Tail cut blood loss in Hemophilia A mice; type: in vivo; settings: 30 min bleeding
Description: In this Example, the effect of administering an adenosine receptor antagonist on reduction in blood loss in mice with Hemophilia A and Hemophilia B mice was analyzed. Male Hemophilia A or Hemophilia B mice, approximately eight to nine weeks of age and weighing, on average, approximately 25 grams, were used in this Example. The mice were anesthetized with isoflurane and the tails were placed in approximately 37-38° C. warmed 15-ml plastic tubes including 0.9% (by weight) saline for 10 minutes. The tails were then cut at 4 mm from the tip by scalpel and immediately placed back into separate pre-warmed (37-38° C.) 15-ml plastic tubes containing 10 ml of 0.9% (by weight) saline. Each mouse was allowed to bleed freely for 30 minutes. The adenosine 2a and 2b receptor antagonist, 4-(2-[7-Amino-2-(2-furyl)[1,2,4]triazolo[2,3-a][1,3,5]triazin-5-ylamino]ethyl)phenol (commercially available as ZM241385 from Tocris Bioscience, United Kingdom), was used in this Example. In a first sample group, ZM241385 was dissolved in 100% DMSO. In a second sample group, ZM241385 was dissolved in PEG400/ethanol/water (40/10/50 v/v/v). In a third sample group, ZM241385 was dissolved in PEG400/water (60/40 v/v). […] Blood loss was quantified gravimetrically by weighing the tubes before and after blood was collected.

Measured: blood loss

Nc1nc(NCCc2ccc(O)cc2)nc2nc(-c3ccco3)nn12 [ZM241385, 4-(2-[7-Amino-2-(2-furyl)[1,2,4]triazolo[2,3-a][1,3,5]triazin-5-ylamino]ethyl)phenol]
reduced blood loss: Hemophilia B mice | Hemophilia A mice; 100 mg/kg intraperitoneal in 100% DMSO, 30 min prior to tail cut, vs excipient (FIG. 2) | Hemophilia A mice; 300 mg/kg intraperitoneal in PEG400/ethanol/water 40/10/50, 30 min prior to tail cut, vs excipient (FIG. 3)
